# Key:
# [1] = system: AHAS; assay: AHAS enzyme assay: AHAS activity remaining in the presence of herbicides or amino acids; assay type: biochemical, Nicotiana tabacum; conditions: for % AHAS activity remaining with Ile / % AHAS activity remaining with Leu / % AHAS activity remaining with Val: 10mM
# Method: The weight of the material to be assayed is determined either by weighing the pellet obtained by refrigerated centrifugation of a cell suspension or by weighing callus, leaf or root tissue placed into liquid nitrogen and macerated to a fine powder. One volume (in ml) of cold homogenization buffer equal to the weight (in g) of the cell suspension pellet or equal to two times the weight (in g) of tissue is added and the mixture is passed through a French pressure cell at 15,000 psi or is ground with sand in a mortar and pestle. All subsequent steps are carried out keeping the material cold (about 4°C). The cells are disrupted at 16,000 psi, collecting the cell exudate into a container on ice. The exudate is centrifuged 5 min at 10,000 rpm to clear the cell debris. The volume of the supernate is measured and enzyme grade ammonium sulfate added to 25 % saturation (144 mg (NH₄)₂SO₄ per ml supernate). The mixture is stirred on ice for 15 min, then centrifuged for 5 min at 10,000 rpm. The pellet is discarded and the supernate adjusted to 50 % saturation with ammonium sulfate (158 mg (NH₄)₂SO₄ per ml supernate). After stirring on ice for 15 min, the pellet is collected by centrifugation at 10,000 rpm for 5 min. The obtained pellet is dissolved in 1-2 ml of column buffer. The extract is desalted by application to a Sephadex G50 column equilibrated with column buffer. The sample is eluted with column buffer, collecting approximately 2 ml of sample for each ml of sample applied to the column.
# Homogenization buffer and column buffer are chosen depending on the source of the AHAS to be assayed: Tobacco homogenization buffer consists of: 50 mM NaH₂PO₄ buffer pH 7.0, 0.5 mM EDTA pH 7.0, 0.5 mM MgCl₂, 1 mM sodium pyruvate pH 7.0, 10 µM FAD, 1 mM PMSF, 10 % glycerol. Maize homogenization buffer consists of: 50 mM Tris pH 7.5, 1 mM EDTA pH 7.5, 5 mM MgCl₂, 20 mM sodium pyruvate pH 7.0, 10 µM FAD, 1 mM PMSF, 1 mM DTT, 1 mM TPP, 10 % glycerol. Tobacco column buffer consists of: 50 mM NaH₂PO₄ buffer pH 7.0, 0.1 mM EDTA, 0.5 mM MgCl₂, 10 µM FAD, 1 mM PMSF, 10 % glycerol. Maize column buffer consists of: 50 mM Tris pH 7.5, 5 mM MgCl₂, 10 µM FAD, 0.1 mM EDTA, 1 mM PMSF, 1 mM DTT, 10 % glycerol.
# 5-50 µl of an extract prepared according to EXAMPLE 30 are dissolved in a total volume of 0.5 ml of reaction mixture (see below). The mixture is incubated for 30 min at 37°C. The reaction is stopped by the addition of 50 µl of 6 N H₂SO₄. The mixture is incubated for 15 min at 60°C, then treated with 625 µl of a-naphthol reagent (500 µl 5 % a-naphthol in 2.5 M NaOH and 125 µl 25 mg/ml creatine) and incubated another 15 min at 60°C. If a precipitate has formed, this is spun out, and the absorbance measured at 520 nm. The amount of acetoin formed is calculated from a standard curve developed using 0.4 µg to 10 µg acetoin. The specific activity is expressed as pKat acetoin per mg protein.
# 1-20 µl of a sample are placed in a ELISA plate well with a total volume of 0.15 ml of reaction mixture. The mixture is reacted for 30 min at 37°C. The reaction is stopped by the addition of 50 µl of 2.4 M H₂SO₄ containing 1 % creatine. The mixture is incubated for 30 min at 60°C. Any precipitate present is separated by centri fugation. 150 µl of the assay mixture are transferred to a new ELISA plate, treated with 100 µl 10 % a-naphthol in 5M NaOH and incubated another 20 min at 60°C. The absorbance is measured at 520 nm, and the specific activity expressed as under a).
# Ten point inhibition curves are generated by determining AHAS activity in the presence of sulfonylurea, imidazolinone and triazolopyrimidine herbicides. The sulfonylurea and triazolopyrimidine herbicides are included in the reaction mixture to give a range of final concentrations of the inhibitors between 1 nM and 10,000 nM. The imidazolinone herbicides are included in the concentration ranges of 10 nM to 100,000 nM. […]
# [2] = system: transgenic tobacco plants; assay: Leaf disc herbicide tolerance test of transgenic tobacco plants; assay type: cell-based, cv. Havana 38; conditions: after 40 days
# Method: After 3-6 weeks of growth in light, the cultured tissue pieces are evaluated for their ability to form green shoots in the presence of the inhibitor. In analogy, sections from stems, petioles, roots, cotyledons, and hypocotyls are used. The herbicide tolerance of the transgenic plants obtained according to EXAMPLE 23 and 24 using CGA1402 are essentially determined as described in EXAMPLE 11a. Leaf discs are cut from different transgenic plants, weighed and then placed, lower side up, onto solidified MSBN medium containing 0, 10, 30, 100 and 300 ppb of SU872. The culture plates are incubated in the light at 25-28°C. […] Discs are inspected visually and evaluated for shoot and/or callus formation.
smiles,measurement,setting,value
"CC[C@H](C)[C@H](N)C(=O)O [Ile, isoleucine]",% AHAS activity remaining with Ile,[1]; strain S3 (Table 2),80%
same,% AHAS activity remaining with Ile,[1]; strain Su 6 (Table 2),66%
same,% AHAS activity remaining with Ile,[1]; strain Su 8 (Table 2),95%
same,% AHAS activity remaining with Ile,[1]; strain Su 10 (Table 2),102%
same,% AHAS activity remaining with Ile,[1]; strain Su 20 (Table 2),58%
same,% AHAS activity remaining with Ile,[1]; strain Su 25 (Table 2),100%
same,% AHAS activity remaining with Ile,[1]; strain Su 27 (Table 2),92%
same,% AHAS activity remaining with Ile,[1]; strain Su 41 (Table 2),97%
"CC(C)C[C@H](N)C(=O)O [Leu, leucine]",% AHAS activity remaining with Leu,[1]; strain S3 (Table 2),38%
same,% AHAS activity remaining with Leu,[1]; strain Su 6 (Table 2),58%
same,% AHAS activity remaining with Leu,[1]; strain Su 8 (Table 2),61%
same,% AHAS activity remaining with Leu,[1]; strain Su 10 (Table 2),62%
same,% AHAS activity remaining with Leu,[1]; strain Su 20 (Table 2),53%
same,% AHAS activity remaining with Leu,[1]; strain Su 25 (Table 2),84%
same,% AHAS activity remaining with Leu,[1]; strain Su 27 (Table 2),81%
same,% AHAS activity remaining with Leu,[1]; strain Su 41 (Table 2),71%
"COCCOc1ccccc1S(=O)(=O)NC(=O)Nc1nc(OC)nc(OC)n1 [SU464, 2-(2-methoxyethoxy)-N-[(4,6-dimethoxy-1,3,5-triazin-2-yl)-aminocarbonyl]benzenesulfonamide]",% AHAS activity remaining with SU464,"[1]; 0.21µM, strain S3 (Table 2)",44%
same,% AHAS activity remaining with SU464,"[1]; 0.21µM, strain Su 6 (Table 2)",36%
same,% AHAS activity remaining with SU464,"[1]; 0.21µM, strain Su 8 (Table 2)",38%
same,% AHAS activity remaining with SU464,"[1]; 0.21µM, strain Su 10 (Table 2)",37%
same,% AHAS activity remaining with SU464,"[1]; 0.21µM, strain Su 20 (Table 2)",32%
same,% AHAS activity remaining with SU464,"[1]; 0.21µM, strain Su 25 (Table 2)",32%
same,% AHAS activity remaining with SU464,"[1]; 0.21µM, strain Su 27 (Table 2)",39%
same,% AHAS activity remaining with SU464,"[1]; 0.21µM, strain Su 41 (Table 2)",32%
same,% AHAS activity remaining with SU464,"[1]; 10.6µM, strain S3 (Table 2)",24%
same,% AHAS activity remaining with SU464,"[1]; 10.6µM, strain Su 6 (Table 2)",15%
same,% AHAS activity remaining with SU464,"[1]; 10.6µM, strain Su 8 (Table 2)",16%
same,% AHAS activity remaining with SU464,"[1]; 10.6µM, strain Su 10 (Table 2)",20%
same,% AHAS activity remaining with SU464,"[1]; 10.6µM, strain Su 20 (Table 2)",21%
same,% AHAS activity remaining with SU464,"[1]; 10.6µM, strain Su 25 (Table 2)",18%
same,% AHAS activity remaining with SU464,"[1]; 10.6µM, strain Su 27 (Table 2)",19%
same,% AHAS activity remaining with SU464,"[1]; 10.6µM, strain Su 41 (Table 2)",21%
"COC(=O)c1ccccc1S(=O)(=O)NC(=O)Nc1nc(OC(F)F)cc(OC(F)F)n1 [SU872, 2-methoxycarbonyl-N-[(4,6-bis{difluoromethoxy}-pyrimidin-2-yl)-aminocarbonyl]benzenesulfonamide]",% AHAS activity remaining with SU872,"[1]; 0.21µM, strain S3 (Table 2)",17%
same,% AHAS activity remaining with SU872,"[1]; 0.21µM, strain Su 6 (Table 2)",27%
same,% AHAS activity remaining with SU872,"[1]; 0.21µM, strain Su 8 (Table 2)",32%
same,% AHAS activity remaining with SU872,"[1]; 0.21µM, strain Su 10 (Table 2)",39%
same,% AHAS activity remaining with SU872,"[1]; 0.21µM, strain Su 20 (Table 2)",18%
same,% AHAS activity remaining with SU872,"[1]; 0.21µM, strain Su 25 (Table 2)",20%
same,% AHAS activity remaining with SU872,"[1]; 0.21µM, strain Su 27 (Table 2)",36%
same,% AHAS activity remaining with SU872,"[1]; 0.21µM, strain Su 41 (Table 2)",15%
same,% AHAS activity remaining with SU872,"[1]; 10.6µM, strain S3 (Table 2)",14%
same,% AHAS activity remaining with SU872,"[1]; 10.6µM, strain Su 6 (Table 2)",12%
same,% AHAS activity remaining with SU872,"[1]; 10.6µM, strain Su 8 (Table 2)",12%
same,% AHAS activity remaining with SU872,"[1]; 10.6µM, strain Su 10 (Table 2)",15%
same,% AHAS activity remaining with SU872,"[1]; 10.6µM, strain Su 20 (Table 2)",17%
same,% AHAS activity remaining with SU872,"[1]; 10.6µM, strain Su 25 (Table 2)",18%
same,% AHAS activity remaining with SU872,"[1]; 10.6µM, strain Su 27 (Table 2)",20%
same,% AHAS activity remaining with SU872,"[1]; 10.6µM, strain Su 41 (Table 2)",12%
same,Mean mg fresh weight per disc ± standard deviation (n=7),"[2]; 10 ppb SU872, plant A3 (transformed with CGA1402, 35S/wild-type Arabidopsis AHAS)",2151 ± 995 mg
same,Mean mg fresh weight per disc ± standard deviation (n=7),"[2]; 10 ppb SU872, plant A4 (transformed with CGA1402, 35S/wild-type Arabidopsis AHAS)",2847 ± 548 mg
same,Mean mg fresh weight per disc ± standard deviation (n=7),"[2]; 10 ppb SU872, plant D2 (genomic clone of AHAS from chlorsulfuron tolerant mutant GH-50), discs bleached, not enlarged, no callus",70 ± 14 mg
same,Mean mg fresh weight per disc ± standard deviation (n=7),"[2]; 10 ppb SU872, plant type E (wild-type tobacco, cv. Havana 38), discs bleached, not enlarged, no callus",87 ± 19 mg
same,Mean mg fresh weight per disc ± standard deviation (n=7),"[2]; 30 ppb SU872, plant A3",180 ± 98 mg
same,Mean mg fresh weight per disc ± standard deviation (n=7),"[2]; 30 ppb SU872, plant A4",333 ± 174 mg
same,Mean mg fresh weight per disc ± standard deviation (n=7),"[2]; 100 ppb SU872, plant A3",33 ± 29 mg
same,Mean mg fresh weight per disc ± standard deviation (n=7),"[2]; 100 ppb SU872, plant A4",19 ± 15 mg
"CC(C)[C@H](N)C(=O)O [Val, valine]",% AHAS activity remaining with Val,[1]; strain S3 (Table 2),69%
same,% AHAS activity remaining with Val,[1]; strain Su 6 (Table 2),82%
same,% AHAS activity remaining with Val,[1]; strain Su 8 (Table 2),81%
same,% AHAS activity remaining with Val,[1]; strain Su 10 (Table 2),48%
same,% AHAS activity remaining with Val,[1]; strain Su 20 (Table 2),75%
same,% AHAS activity remaining with Val,[1]; strain Su 25 (Table 2),86%
same,% AHAS activity remaining with Val,[1]; strain Su 27 (Table 2),91%
same,% AHAS activity remaining with Val,[1]; strain Su 41 (Table 2),83%

# — patent EP0360750A2, “Novel herbicide tolerant plants” (CIBA-GEIGY AG, priority 1988, dated 1990)
